Key:
[1] = tested on: BT474; assay: Cytotoxicity assay (SRB), BT474; format: cell-based; conditions: Homo sapiens, BT-474, 144 h, BT474 cells, SRB, 6 days; read-out: In Vitro Cellular Activity IC50 BT474
In short: (§1)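 Plate cells, let them attach overnight, add compound dilutions in RPMI 1640/5% FBS, and incubate 3 days (BT474 6 days). Then fix with TCA, stain with SRB, dissolve the dye in Tris and read at 540 nm.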

[2] = tested on: LoVo; assay: Cytotoxicity assay (SRB), LoVo; format: cell-based; conditions: Homo sapiens, LoVo, 72 h, LoVo cells, SRB, three days; read-out: In Vitro Cellular Activity IC50 LOVO
In short: as §1

[3] = tested on: HCT-116; assay: Cytotoxicity assay (SRB), HCT-116; format: cell-based; conditions: Homo sapiens, HCT-116, 72 h, HCT116 cells, SRB, three days; read-out: In Vitro Cellular Activity IC50 HCT116
In short: as §1

[4] = tested on: MCF-7; assay: Cytotoxicity assay (SRB), MCF-7; format: cell-based; conditions: Homo sapiens, MCF7, 72 h, MCF-7 cells, SRB, three days; read-out: In Vitro Cellular Activity IC50 MCF-7
In short: as §1

SMILES	melting point	IC50 [1]	IC50 [2]	IC50 [3]	IC50 [4]
CN1CCN(c2ccc(N/C=C3\C(=O)NC(=O)c4ccc(-c5ccc(C=O)cc5)cc43)cc2)CC1 (hydrate or solvate) [Example 115, 4-[(4Z)-4-({[4-(4-Methylpiperazin-1-yl)phenyl]amino}methylene)-1,3-dioxo-1,2,3,4-tetra-hydroisoquinolin-6-yl]benzaldehyde]	152 to 153 °C				
COc1ccc(-c2ccc3c(c2)/C(=C/Nc2ccc(CN4CCCCC4)cc2)C(=O)NC3=O)cc1 (hydrate or solvate) [Example 116, (4Z)-6-(4-Methoxyphenyl)-4-({[4-(piperidin-1-ylmethyl)phenyl]amino}methylene)-isoquinoline-1,3(2H,4H)-dione]	168 to 169 °C				
COc1cccc(-c2ccc3c(c2)/C(=C/Nc2ccc(CN4CCCCC4)cc2)C(=O)NC3=O)c1 (hydrate or solvate) [Example 117, (4Z)-6-(3-Methoxyphenyl)-4-({[4-(piperidin-1-ylmethyl)phenyl]amino}methylene)-isoquinoline-1,3(2H,4H)-dione]	169 to 170 °C				
CN1CCN(c2ccc(N/C=C3\C(=O)NC(=O)c4ccc(-c5ccc(C=O)o5)cc43)cc2)CC1 (hydrate or solvate) [Example 124, 5-[(4Z)-4-({[4-(4-Methylpiperazin-1-yl)phenyl]amino}methylene)-1,3-dioxo-1,2,3,4-tetrahydroisoquinolin-6-yl]-2-furaldehyde]	218 to 220 °C				
O=C1NCc2ccccc2/C1=C/Nc1ccc(-c2c[nH]cn2)cc1 [Example 3, (4Z)-4-({[4-(1H-Imidazol-4-yl)phenyl]amino}methylene)-1,4-dihydro-3(2H)-isoquinolinone]	151 to 152 °C (dec.)				
O=C1NC(=O)c2ccccc2/C1=C/Nc1ccc2cn[nH]c2c1 [Example 7, (4Z)-4-[(1H-Indazol-6-ylamino)methylene]isoquinoline-1,3(2H,4H)-dione]	> 300 °C				
O=C1NC(=O)c2ccc(Br)cc2/C1=C/NCc1cccnc1 [Example 30, (4Z)-6-Bromo-4-{[(pyridin-3-ylmethyl)amino]methylene}isoquinoline-1,3(2H,4H)-dione]	299 to 300 °C				
O=C1NC(=O)c2ccc([N+](=O)[O-])cc2/C1=C/Nc1ccc(CN2CCCCC2)cc1 [Example 42, (4Z)-6-Nitro-4-{[(4-piperidin-1-ylmethyl)phenyl]amino}methyleneisoquinoline-1,3(2H,4H)-dione]	225 to 235 °C (dec.)				
O=C1NC(=O)c2ccc(Br)cc2/C1=C/NCCc1c[nH]c2ccccc12 [Example 43, (4Z)-6-Bromo-4-({[2-(1H-indol-3-yl)ethyl]amino}methylene)isoquinoline-1,3(2H,4H)-dione]	278 to 280 °C	41 µM	> 50 µM	26 µM	> 50 µM
CN1CCN(c2ccc(N/C=C3\C(=O)NC(=O)c4ccc(C(=O)O)cc43)cc2)CC1 [Example 51, (4Z)-4-({[4-(4-Methylpiperazin-1-yl)phenyl]amino}methylene)-1,3-dioxo-1,2,3,4-tetrahydroisoquinoline-6-carboxylic acid]	278 to 280 °C				
O=C1NC(=O)c2ccc(Br)cc2/C1=C/NCc1ccc(Cl)cc1 [Example 53, (4Z)-6-Bromo-4-{[(4-chlorobenzyl)amino)methylene}isoquinoline-1,3(2H,4H)-dione]	234 to 235 °C	37 µM	> 50 µM	32 µM	> 50 µM
COc1ccc(CN/C=C2\C(=O)NC(=O)c3ccc(Br)cc32)cc1OC(C)=O [Example 57, 5-({[(Z)-(6-Bromo-1,3-dioxo-2,3-dihydroisoquinolin-4(1H)-ylidene)methyl]amino}methyl)-2-methoxyphenyl acetate]	226 to 227 °C	3.7 µM	5.2 µM	9.6 µM	> 50 µM
O=C1NC(=O)c2ccc(-c3ccc(Oc4ccccc4)cc3)cc2/C1=C/Nc1ccc(CN2CCCCC2)cc1 [Example 101]	132 to 133 °C	2.9 µM	4.3 µM	1.2 µM	3.2 µM
O=C1NC(=O)c2ccc(Br)cc2/C1=C/NCc1ccc2c(c1)OCO2 [Example 109, (4Z)-4-{[(1,3-Benzodioxol-5-ylmethyl)amino]methylene}-6-bromoisoquinoline-1,3(2H,4H)-dione]	227 to 228 °C	34.8 µM	> 50 µM	16.8 µM	> 50 µM
N#Cc1ccc2c(c1)/C(=C/Nc1ccc(CN3CCCCC3)cc1)C(=O)NC2=O [Example 110, (4Z)-1,3-Dioxo-4-({[4-(piperidin-1-ylmethyl)phenyl]amino}methylene)1,2,3,4-tetrahydroisoquinoline-6-carbonitrile]	254 to 256 °C (dec.)	3.5 µM	2.5 µM	1.6 µM	5.8 µM
COC[C@H]1CCCN1c1ccc2c(c1)/C(=C/Nc1ccc(CN3CCCCC3)cc1)C(=O)NC2=O [Example 121, (4Z)-6-[(2R)-2-(Methoxymethyl)pyrrolidin-1-yl]-4-({[4-(piperidin-1-ylmethyl)phenyl]amino}methylene)isoquinoline-1,3(2H,4H)-dione]	135 to 136 °C	7.7 µM	3.8 µM	5.5 µM	4.6 µM
COc1ccc(CN/C=C2\C(=O)NC(=O)c3cc(Br)ccc32)cc1O [Example 135, (4Z)-7-Bromo-4-{[(3-hydroxy-4-methoxybenzyl)amino]methylene}isoquinoline-1,3(2H,4H)-dione]	297 to 298 °C	> 50 µM	> 50 µM	31 µM	> 50 µM
CN1CCN(c2ccc(NC=C3C(=O)NC(=O)c4ccc(OCCN5CCOCC5)cc43)cc2)CC1 [Example 155, 4-{[4-(4-Methyl-piperazin-1-yl)-phenylamino]-methylene}-6-(2-morpholin-4-yl-ethoxy)-4H-isoquinoline-1,3-dione]	142 to 143 °C	22 µM	19 µM	17 µM	26 µM
Cc1ccc(CN/C=C2\C(=O)NC(=O)c3ccc(I)cc32)cc1O [Example 157, (4Z)-4-{[(4-Methyl-3-hydroxybenzyl)amino]methylene}-6-iodoisoquinoline-′1,3(2H,4H)-dione]	312 to 313 °C	19 µM	22 µM	6.7 µM	8.2 µM
CN1CCN(c2ccc(N/C=C3\C(=O)NC(=O)c4ccc(C#CCOC5CCCCO5)cc43)cc2)CC1 (centres unmarked) [Example 161, (4Z)-4-({[4-(4-Methylpiperazin-1-yl)phenyl]amino}methylene)-6-[3-(tetrahydro-2H-pyran-2-yloxy)prop-1-ynyl]isoquinoline-1,3(2H,4H)-dione]	175 to 176 °C	3.4 µM	6.4 µM	2.2 µM	4 µM
CCOC(=O)C1(C(=O)OCC)Oc2ccc(CN/C=C3\C(=O)NC(=O)c4ccc(Br)cc43)cc2O1 [Example 179, (Z)-Diethyl 5-(((6-bromo-1,3-dioxo-2,3-dihydroisoquinolin-4(1H)-ylidene)methylamino)methyl)benzo[d][1,3]dioxole-2,2-dicarboxylate]	222 to 223 °C	17 µM	20 µM	34 µM	30 µM
O=C1NC(=O)c2ccc(Br)cc2/C1=C/NCc1ccc(NC(=O)C2CC2)c(OC(=O)C2CC2)c1 [Example 185, 5-({[(Z)-(6-Bromo-1,3-dioxo-2,3-dihydroisoquinolin-4(1H)-′cyclopropanecarboxylate ′ylidene)methyl]amino}methyl)-2-[(cyclopropylcarbonyl)amino]phenyl]	245 to 246 °C	0.87 µM	2.7 µM	2.8 µM	> 50 µM
CCCOc1ccc(CN/C=C2\C(=O)NC(=O)c3ccc(Br)cc32)cc1OC(=O)CC [Example 190, 5-({[(Z)-(6-Bromo-1,3-dioxo-2,3-dihydroisoquinolin-4(1H)-ylidene)methyl]amino}-methyl)-2-propoxyphenyl propionate]	206 to 207 °C	1.4 µM	13 µM	9.4 µM	> 50 µM
CCCOc1ccc(CN/C=C2\C(=O)NC(=O)c3ccc(Br)cc32)cc1OC(=O)OC [Example 191, 5-({[(Z)-(6-Bromo-1,3-dioxo-2,3-dihydroisoquinolin-4(1H)-ylidene)methyl]amino}-methyl)-2-propoxyphenyl methyl carbonate]	211 to 212 °C	5.7 µM	> 50 µM	35 µM	> 50 µM
CN1CCN(C(=O)Nc2ccc(N/C=C3\C(=O)NC(=O)c4ccc(Br)cc43)cc2)CC1 [Example 215, N-(4-{[(Z)-(6-Bromo-1,3-dioxo-2,3-dihydroisoquinolin-4(1H)-′ylidene)methyl]amino}phenyl)-4-methylpiperazine-1-carboxamide]	> 300 °C	7.4 µM	6.4 µM	4.5 µM	7.1 µM

Source: US7713994B2 (Wyeth LLC, priority 2005, dated 2010)
